Literature values as cited in patent US12708665B2, “Anti-IL-1β antibody therapy in arrhythmogenic cardiomyopathy (ACM)” (Beth Israel Deaconess Medical Center, Inc., priority 2019, dated 2026).

Experiments:
[1] = tested on: in vitro and in vivo models of ACM; conditions: multiple in vitro and in vivo models of ACM, human iPSC-cardiac myocytes from ACM patients; cited from earlier work
[2] = tested on: patients with coronary artery disease; conditions: cited from earlier work

| Molecule | effect on ACM disease phenotype (arrhythmias, exercise-induced sudden death, myocyte injury and apoptosis, inflammation, contractile dysfunction) [1] | infectious complications related to immunosuppression ([2]; in vivo) | major adverse cardiac events ([2]; patients with coronary artery disease, CANTOS trial) |
| --- | --- | --- | --- |
| Cn1cc(C2=C(c3ccc(Cl)cc3Cl)C(=O)NC2=O)c2ccccc21 [SB216763] | prevent and/or reverse the full ACM disease phenotype |  |  |
| monoclonal antibody against IL-1β: monoclonal antibody against IL-1β used in the CANTOS trial (ref. 36) |  | not associated with significant infectious complications | significantly reduced |
